What all share (format): biochemical
In one assay the target is T1, JAK2 (Homo sapiens, UniProt O60674).
T1 construct: purchased Invitrogen PV4210
As to the kind of experiment: Inhibition of JAK2 kinase, LANCE Ultra TR-FRET assay. Conditions: 2x ATP 24 μM, 15 min pre-incubation, 90 min reaction, 23° C. How it is done:
(§1) Exemplary compounds were assayed to determine potency in inhibiting activity of JAK1-3 and TYK2 kinases by determining IC50 values.
(§2) The sources of test materials and equipment are as follows: JAK1 (Invitrogen, Cat. No PV4775), JAK2 (Invitrogen, Cat. No PV4210), JAK3 (Invitrogen, Cat. No PV4080), TYK2 (Invitrogen, Cat. No PR8440C), ATP (Sigma, Cat. No. A7699-1G), DMSO (Sigma, Cat. No. D2650), DTT (Sigma, Cat. No. 43815), 384 wells_compound plate (Greiner, Cat. No. 781280), 384 wells_assay plate (Perkin Elmer, Cat. No. 6007299), LANCE Ultra ULight™-JAK-1 peptide (Perkin Elmer, Cat. No. TRF0121), LANCET™ Eu-W1024 Anti-phosphotyrosine (PT66) (Perkin Elmer, Cat. No. AD0069), LANCET™ Detection Buffer(Perkin Elmer, Cat. No. CR97-100).
(§3) The concentrations of test compounds varied from 100 μM to 1.7 nM with 3-fold dilution, 11 points, in duplicates while the concentrations of the reference compound, Tofacitinib, varied from 1 μM to 0.017 nM with 3-fold dilution, 11 points, in duplicates.
(§4) The assay buffer contained 50 mM HEPES (pH 7.5), 0.01% Brij-35, 10 mM MgCl2, 1 mM EDTA, 2 mM DTT. Incubations were carried out at 23° C.
(§5) Prior to the assay, enzyme, peptide substrate and serially diluted test compounds were pre-incubated together in assay buffer (5 μL) for 15 minutes (peptide substrate concentration: 50 nM; JAK enzyme concentrations: 2 nM JAK1; […]; […] and 4 nM TYK2). And the assay was initiated by the addition of 5 μL assay buffer containing 2× final ATP concentration (these are the 2×ATP concentrations: 76 μM JAK1; 24 μM JAK2; 8 μM JAK3 and 30 μM TYK2). Following the 90-minute incubation, antibody conjugated with Eu is dissolved in detection buffer to add into wells and then incubated for 60 minutes. The 10 μL detection buffer contains EDTA to stop the enzymatic reaction. The plate is analyzed by Perkin Elmer Envision on TR-FRET mode. The high ratio of 665/615 represents no inhibition of kinase reaction while the low ratio of 665/615 represents complete inhibition of kinase reaction.
(§6) Curves are fit by XLFIT5 as inhibition rate % vs. log [compound concentration] using 4 parameters logistic model 205.
(§7) In the table, “A” indicates an IC50 of less than 100 nM, “B” indicates an IC50 range from 100 nM to 500 nM; “C” indicates an IC50 range from 500 nM to 2 μM; and “D” indicates an IC50 greater than 2 μM. Also, “na” indicates data is not available.

A further assay deals with T2, TYK2 (Homo sapiens, UniProt P29597).
T2 construct: purchased Invitrogen PR8440C
The assay is described as follows: Inhibition of TYK2 kinase, LANCE Ultra TR-FRET assay. Conditions: 4 nM TYK2, 2x ATP 30 μM, 15 min pre-incubation, 90 min reaction, 23° C., read-out: tyk IC50. How it is done:
as §1, §2, §3, §4, §5, §6, §7
Background: In TR-FRET formats the signal depends on donor and acceptor labels being close together.

For the next assay, the target named is T3, JAK3 (Homo sapiens, UniProt P52333).
T3 construct: purchased Invitrogen PV4080
T3 sequence (P52333 1-1124): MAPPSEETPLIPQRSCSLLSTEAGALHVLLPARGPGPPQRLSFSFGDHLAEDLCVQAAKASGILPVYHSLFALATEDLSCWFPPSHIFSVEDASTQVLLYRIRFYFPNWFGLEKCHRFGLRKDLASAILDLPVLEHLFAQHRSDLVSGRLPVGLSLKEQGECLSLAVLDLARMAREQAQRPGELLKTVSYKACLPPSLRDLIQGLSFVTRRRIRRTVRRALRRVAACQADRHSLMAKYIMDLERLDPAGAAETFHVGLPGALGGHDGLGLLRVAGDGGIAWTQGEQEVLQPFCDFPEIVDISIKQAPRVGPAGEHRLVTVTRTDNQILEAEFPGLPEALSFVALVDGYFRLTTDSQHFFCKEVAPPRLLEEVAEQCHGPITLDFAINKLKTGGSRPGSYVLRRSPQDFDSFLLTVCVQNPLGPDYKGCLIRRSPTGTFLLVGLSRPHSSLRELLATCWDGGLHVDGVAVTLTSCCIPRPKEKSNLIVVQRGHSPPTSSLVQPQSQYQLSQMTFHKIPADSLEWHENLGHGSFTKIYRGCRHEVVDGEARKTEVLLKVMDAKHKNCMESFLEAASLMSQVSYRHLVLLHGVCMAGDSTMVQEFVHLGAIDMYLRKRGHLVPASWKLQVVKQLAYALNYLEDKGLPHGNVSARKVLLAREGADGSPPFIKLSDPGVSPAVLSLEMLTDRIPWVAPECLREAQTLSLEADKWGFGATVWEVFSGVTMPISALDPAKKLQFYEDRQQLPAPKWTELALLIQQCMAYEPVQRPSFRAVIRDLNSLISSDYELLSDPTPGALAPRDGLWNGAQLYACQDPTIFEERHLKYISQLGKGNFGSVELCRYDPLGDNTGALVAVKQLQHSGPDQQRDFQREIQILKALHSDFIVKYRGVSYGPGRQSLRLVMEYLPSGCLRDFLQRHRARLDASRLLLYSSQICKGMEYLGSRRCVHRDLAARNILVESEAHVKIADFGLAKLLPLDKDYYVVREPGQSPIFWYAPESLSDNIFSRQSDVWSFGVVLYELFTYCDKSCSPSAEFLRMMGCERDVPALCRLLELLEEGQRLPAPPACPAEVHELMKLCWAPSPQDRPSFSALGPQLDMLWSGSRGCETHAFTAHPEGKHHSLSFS
As to the kind of experiment: Inhibition of JAK3 kinase, LANCE Ultra TR-FRET assay. Conditions: 2x ATP 8 μM, 15 min pre-incubation, 90 min reaction, 23° C. How it is done:
as §1, §2, §3, §4, §5, §6, §7

The next assay addresses T4, JAK1 (Homo sapiens, UniProt P23458).
T4 construct: purchased Invitrogen PV4775
The assay is described as follows: Inhibition of JAK1 kinase, LANCE Ultra TR-FRET assay. Conditions: 2 nM JAK1, 2x ATP 76 μM, 15 min pre-incubation, 90 min reaction, 23° C. How it is done: as §1, §2, §3, §4, §5, §6, §7

Our source for the IC50 values is patent US12286443B2, “Bycyclic JAK inhibitors and uses thereof” (Insilico Medicine IP Limited, priority 2019, dated 2025).

T1 sequence (O60674 whole entry): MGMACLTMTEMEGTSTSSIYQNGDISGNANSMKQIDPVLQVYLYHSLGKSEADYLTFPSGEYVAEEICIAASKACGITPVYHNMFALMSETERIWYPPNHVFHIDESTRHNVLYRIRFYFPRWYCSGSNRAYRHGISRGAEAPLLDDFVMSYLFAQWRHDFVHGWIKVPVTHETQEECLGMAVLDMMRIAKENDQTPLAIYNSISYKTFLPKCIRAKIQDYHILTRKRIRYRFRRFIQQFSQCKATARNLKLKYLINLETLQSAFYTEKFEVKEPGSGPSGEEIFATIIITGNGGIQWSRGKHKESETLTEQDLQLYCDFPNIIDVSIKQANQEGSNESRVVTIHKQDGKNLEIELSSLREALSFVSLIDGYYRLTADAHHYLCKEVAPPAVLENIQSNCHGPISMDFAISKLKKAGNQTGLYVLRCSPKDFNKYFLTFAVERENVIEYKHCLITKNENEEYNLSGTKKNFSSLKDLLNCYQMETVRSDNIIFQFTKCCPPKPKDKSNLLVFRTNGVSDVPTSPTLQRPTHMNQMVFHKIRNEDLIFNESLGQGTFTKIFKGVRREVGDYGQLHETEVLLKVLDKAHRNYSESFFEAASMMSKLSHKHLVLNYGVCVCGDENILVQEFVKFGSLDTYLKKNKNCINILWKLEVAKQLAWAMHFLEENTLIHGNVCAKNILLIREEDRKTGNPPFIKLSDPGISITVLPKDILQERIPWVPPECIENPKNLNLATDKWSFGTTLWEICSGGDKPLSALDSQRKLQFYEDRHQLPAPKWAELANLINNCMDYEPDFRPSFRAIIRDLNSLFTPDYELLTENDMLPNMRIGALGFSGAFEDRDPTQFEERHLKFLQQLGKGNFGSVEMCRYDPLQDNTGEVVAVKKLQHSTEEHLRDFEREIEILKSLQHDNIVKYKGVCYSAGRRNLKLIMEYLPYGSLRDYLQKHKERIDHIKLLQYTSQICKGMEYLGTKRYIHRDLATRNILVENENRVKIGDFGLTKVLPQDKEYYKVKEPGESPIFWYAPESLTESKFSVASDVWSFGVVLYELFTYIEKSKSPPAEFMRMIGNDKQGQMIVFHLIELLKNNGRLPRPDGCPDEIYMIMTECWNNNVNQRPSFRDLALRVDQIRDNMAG
T2 sequence (P29597 whole entry): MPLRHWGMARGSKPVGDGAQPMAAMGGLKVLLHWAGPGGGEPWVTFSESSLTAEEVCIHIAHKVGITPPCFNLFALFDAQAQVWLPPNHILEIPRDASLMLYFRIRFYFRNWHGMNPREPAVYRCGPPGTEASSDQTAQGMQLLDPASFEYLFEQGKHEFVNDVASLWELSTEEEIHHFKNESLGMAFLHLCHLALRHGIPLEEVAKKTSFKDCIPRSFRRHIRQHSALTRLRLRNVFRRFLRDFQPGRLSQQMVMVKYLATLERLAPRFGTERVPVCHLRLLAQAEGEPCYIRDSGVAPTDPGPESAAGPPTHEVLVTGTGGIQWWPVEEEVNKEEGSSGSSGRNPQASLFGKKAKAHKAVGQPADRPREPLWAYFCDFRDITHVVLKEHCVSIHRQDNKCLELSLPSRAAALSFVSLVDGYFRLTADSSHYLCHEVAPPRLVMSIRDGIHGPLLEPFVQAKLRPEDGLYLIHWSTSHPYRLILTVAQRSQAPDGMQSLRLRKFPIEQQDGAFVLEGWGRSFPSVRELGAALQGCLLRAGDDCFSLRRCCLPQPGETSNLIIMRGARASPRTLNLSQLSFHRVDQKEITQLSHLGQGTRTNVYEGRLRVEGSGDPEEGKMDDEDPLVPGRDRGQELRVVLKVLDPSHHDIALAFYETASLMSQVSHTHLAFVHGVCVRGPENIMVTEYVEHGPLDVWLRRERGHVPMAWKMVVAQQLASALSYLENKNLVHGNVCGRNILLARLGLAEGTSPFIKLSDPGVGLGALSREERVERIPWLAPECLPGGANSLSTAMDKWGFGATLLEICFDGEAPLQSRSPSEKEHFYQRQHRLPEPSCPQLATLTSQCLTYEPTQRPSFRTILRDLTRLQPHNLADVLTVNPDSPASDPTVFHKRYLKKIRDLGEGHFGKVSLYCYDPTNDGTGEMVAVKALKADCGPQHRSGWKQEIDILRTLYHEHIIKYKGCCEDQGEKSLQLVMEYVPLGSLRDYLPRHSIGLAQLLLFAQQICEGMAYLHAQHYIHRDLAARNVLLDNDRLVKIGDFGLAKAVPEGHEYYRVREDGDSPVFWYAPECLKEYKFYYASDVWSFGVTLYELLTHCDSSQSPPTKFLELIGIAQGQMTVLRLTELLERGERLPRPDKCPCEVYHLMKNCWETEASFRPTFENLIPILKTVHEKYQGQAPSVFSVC
T4 sequence (P23458 whole entry): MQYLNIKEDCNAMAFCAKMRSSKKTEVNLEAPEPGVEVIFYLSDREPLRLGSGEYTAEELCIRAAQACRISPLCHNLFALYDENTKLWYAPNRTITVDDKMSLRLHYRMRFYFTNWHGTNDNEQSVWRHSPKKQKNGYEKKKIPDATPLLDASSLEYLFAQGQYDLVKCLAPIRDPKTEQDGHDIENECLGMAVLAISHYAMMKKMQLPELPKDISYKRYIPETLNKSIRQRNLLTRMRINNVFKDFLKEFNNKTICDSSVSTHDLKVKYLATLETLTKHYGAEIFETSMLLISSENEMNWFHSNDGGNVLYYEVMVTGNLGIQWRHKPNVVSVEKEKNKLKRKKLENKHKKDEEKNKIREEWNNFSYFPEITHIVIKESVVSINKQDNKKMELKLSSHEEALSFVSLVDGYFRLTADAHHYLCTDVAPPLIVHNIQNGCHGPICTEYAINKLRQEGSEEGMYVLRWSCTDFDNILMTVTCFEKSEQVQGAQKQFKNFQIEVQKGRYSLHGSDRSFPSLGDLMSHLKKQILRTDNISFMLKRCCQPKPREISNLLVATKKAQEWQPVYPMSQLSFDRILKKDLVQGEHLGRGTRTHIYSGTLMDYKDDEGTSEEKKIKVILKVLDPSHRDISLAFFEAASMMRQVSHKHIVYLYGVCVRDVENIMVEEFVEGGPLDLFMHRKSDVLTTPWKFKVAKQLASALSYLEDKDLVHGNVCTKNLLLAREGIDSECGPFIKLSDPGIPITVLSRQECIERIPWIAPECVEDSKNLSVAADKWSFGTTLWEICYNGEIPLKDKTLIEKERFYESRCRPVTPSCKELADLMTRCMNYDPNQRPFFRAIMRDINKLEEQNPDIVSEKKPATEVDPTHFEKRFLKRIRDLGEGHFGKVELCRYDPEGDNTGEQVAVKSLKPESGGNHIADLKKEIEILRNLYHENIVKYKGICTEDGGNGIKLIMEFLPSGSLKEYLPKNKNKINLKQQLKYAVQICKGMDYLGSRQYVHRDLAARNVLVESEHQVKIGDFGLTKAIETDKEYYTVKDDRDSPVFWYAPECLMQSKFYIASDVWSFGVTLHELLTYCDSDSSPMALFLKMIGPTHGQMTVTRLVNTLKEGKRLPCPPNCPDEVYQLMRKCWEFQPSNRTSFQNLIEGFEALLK

One may read the IC50 as the concentration that gives 50% inhibition. `Cn1cc(C(=O)NCCC(F)(F)F)c2c1CCN(c1ncnc3[nH]ccc13)C2` [Compound 130]: the IC50 at JAK2 was 100 to 500 nM; at TYK2, 100 to 500 nM; against JAK3 it was < 100 nM; at JAK1 it was < 100 nM.

Turning to `FC(F)(F)CCNCc1n[nH]c2c1CN(c1ncnc3[nH]ccc13)CC2` [Compound 131], the IC50 at JAK2 was 100 to 500 nM; at TYK2 it was 100 to 500 nM; against JAK3 it was < 100 nM; against JAK1, 100 to 500 nM.

With `O=C(NCCC(F)(F)F)n1ccc2c1CN(c1ncnc3[nH]ccc13)CC2` [Compound 132], the IC50 on JAK2 is 500 to 2000 nM; on TYK2 it was > 2000 nM; on JAK3, 500 to 2000 nM; against JAK1 it was 100 to 500 nM.

As for `O=C(NCCS(=O)(=O)N1CCC1)c1noc2c1CN(c1ncnc3[nH]ccc13)CC2` [Compound 134], the 50% inhibitory concentration (IC50) at JAK2 was 500 to 2000 nM; at TYK2, > 2000 nM; against JAK3, 100 to 500 nM; against JAK1 it was 500 to 2000 nM.

As to `O=C(NCCS(=O)(=O)N1CCCC1)c1noc2c1CN(c1ncnc3[nH]ccc13)CC2` [Compound 135], the IC50 at JAK2 was 100 to 500 nM; at TYK2, > 2000 nM; against JAK3 it was 100 to 500 nM; at JAK1, 100 to 500 nM.

Regarding `O=C(NCCS(=O)(=O)N1CCCCC1)c1noc2c1CN(c1ncnc3[nH]ccc13)CC2` [Compound 136], the IC50 against JAK2 is > 2000 nM; on TYK2, > 2000 nM; at JAK3, 100 to 500 nM; on JAK1, 500 to 2000 nM.

Turning to `O=C(NCCC1CC1)c1n[nH]c2c1CN(c1ncnc3[nH]ccc13)CC2` [Compound 138], the concentration for half-maximal inhibition (IC50) at JAK2 is 100 to 500 nM; at TYK2, 500 to 2000 nM; on JAK3, < 100 nM; at JAK1 it was 100 to 500 nM.

For `Cc1cnc(CCNC(=O)c2noc3c2CN(c2ncnc4[nH]ccc24)CC3)o1` [Compound 139], the IC50 on JAK2, at TYK2, against JAK3 and at JAK1 was > 2000 nM each time.

Turning to `O=C(NCCC(F)(F)F)c1nsc2c1CN(c1ncnc3[nH]ccc13)CC2` [Compound 141], the IC50 on JAK2 is < 100 nM; on TYK2, 100 to 500 nM; against JAK3 it was < 100 nM; at JAK1 it was < 100 nM.

Take `O=C(NCCCC1(O)CC1)c1noc2c1CN(c1ncnc3[nH]ccc13)CC2` [Compound 144]: the IC50 was 100 to 500 nM against JAK2, > 2000 nM at TYK2, < 100 nM against JAK3 and 100 to 500 nM on JAK1.

Consider `O=C(NCCCC1(O)CC1)c1noc2c1CN(c1ncnc3[nH]ccc13)CC2` [Compound 145], for which the IC50 is 500 to 2000 nM against JAK2, > 2000 nM at TYK2, 100 to 500 nM on JAK3 and 100 to 500 nM against JAK1.

With `O=C(NCCC1COC1)c1noc2c1CN(c1ncnc3[nH]ccc13)CC2` [Compound 146], the 50% inhibitory concentration (IC50) was 500 to 2000 nM on JAK2, > 2000 nM on TYK2, 100 to 500 nM at JAK3 and 100 to 500 nM at JAK1.

In the case of `O=C(NCCC1(F)COC1)c1noc2c1CN(c1ncnc3[nH]ccc13)CC2` [Compound 147], the IC50 was 100 to 500 nM on JAK2, > 2000 nM at TYK2, 100 to 500 nM at JAK3 and 100 to 500 nM on JAK1.

With `O=C(NCCC1CC(F)(F)C1)c1noc2c1CN(c1ncnc3[nH]ccc13)CC2` [Compound 148], the half-maximal inhibitory concentration (IC50) against JAK2 is 500 to 2000 nM; at TYK2, > 2000 nM; on JAK3, 100 to 500 nM; against JAK1 it was 100 to 500 nM.

With `O=C(NCCC1(O)CC(F)(F)C1)c1noc2c1CN(c1ncnc3[nH]ccc13)CC2` [Compound 149], the IC50 at JAK2 is 500 to 2000 nM; at TYK2, > 2000 nM; at JAK3, 100 to 500 nM; at JAK1, 500 to 2000 nM.

Regarding `O=C(NCC1CCC1O)c1noc2c1CN(c1ncnc3[nH]ccc13)CC2` (stereo not drawn) [Compound 150], the IC50 against JAK2 is 100 to 500 nM; at TYK2, > 2000 nM; against JAK3 it was < 100 nM; against JAK1, 100 to 500 nM.

Take `O=C(NCC(CO)C(F)(F)F)c1noc2c1CN(c1ncnc3[nH]ccc13)CC2` (stereo not drawn) [Compound 151]: the half-maximal inhibitory concentration (IC50) against JAK2 was < 100 nM; on TYK2, 500 to 2000 nM; against JAK3, < 100 nM; against JAK1 it was < 100 nM.

In the case of `O=C(NCCN1CCC1)c1noc2c1CN(c1ncnc3[nH]ccc13)CC2` [Compound 152], the IC50 on JAK2, at TYK2, on JAK3 and against JAK1 was > 2000 nM each time.

For `O=C(NCCc1ccccn1)c1noc2c1CN(c1ncnc3[nH]ccc13)CC2` [Compound 153], the IC50 against JAK2 was 500 to 2000 nM; on TYK2, > 2000 nM; on JAK3, 100 to 500 nM; at JAK1, 500 to 2000 nM.

Regarding `O=C(NCCCC(F)(F)F)c1noc2c1CN(c1ncnc3[nH]ccc13)CC2` [Compound 154], the concentration for half-maximal inhibition (IC50) against JAK2 is 100 to 500 nM; at TYK2 it was > 2000 nM; against JAK3, < 100 nM; against JAK1, 100 to 500 nM.

As for `CN1CCCC1CCNC(=O)c1noc2c1CN(c1ncnc3[nH]ccc13)CC2` (stereo not drawn) [Compound 155], the IC50 is 500 to 2000 nM against JAK2, > 2000 nM on TYK2, 500 to 2000 nM at JAK3 and 500 to 2000 nM on JAK1.

As for `CN(C)S(=O)(=O)CCNC(=O)c1noc2c1CN(c1ncnc3[nH]ccc13)CC2` [Compound 156], the IC50 against JAK2 is 100 to 500 nM; at TYK2, > 2000 nM; at JAK3 it was 100 to 500 nM; at JAK1, 100 to 500 nM.

`CNS(=O)(=O)CCNC(=O)c1noc2c1CN(c1ncnc3[nH]ccc13)CC2` [Compound 157]: the IC50 against JAK2 is 100 to 500 nM; on TYK2, > 2000 nM; on JAK3, < 100 nM; against JAK1, < 100 nM.

Turning to `O=C(NCCC1CCCC1)c1noc2c1CN(c1ncnc3[nH]ccc13)CC2` [Compound 158], the IC50 is 100 to 500 nM against JAK2, > 2000 nM at TYK2, < 100 nM at JAK3 and 100 to 500 nM on JAK1.
